{
  "source": "paper PMC12443862",
  "about": "“The second life of Citrus bergamia: bioavailability analysis of a new formulation using waste-based microencapsulation as a valuable source of bioactive compounds” (Pharmacological Reports, 2025)",
  "origin": "cited, not measured here",
  "set-up": "method as in PMID 25200135",
  "conditions": "hesperidin micronization (5.1 μm)",
  "data": [
    {"smiles": "COc1ccc([C@@H]2CC(=O)c3c(O)cc(O[C@@H]4O[C@H](CO[C@@H]5O[C@@H](C)[C@H](O)[C@@H](O)[C@H]5O)[C@@H](O)[C@H](O)[C@H]4O)cc3O2)cc1O", "note": "[hesperidin]", "values": [
      {"measurement": "Increase of flavanone's bioavailability compared to conventional hesperidin (32.8 μm)", "value": 2, "unit": "fold"}
    ]}
  ]
}
